The test system of series [1] is eIF2.GTP.Met-tRNAi ternary complex. As to the kind of experiment: Ternary complex assay: dual luciferase F-luc/R-luc ratio in KLN-tTA/pBISA-DL(ATF-4) cells (HTS screen, 96-well hit confirmation, dose response). It counts as cell-based, mouse. Particulars: for fold induction at 3 µM / fold induction at 10 µM: Mus musculus; for fold induction at 3 µM / fold induction at 10 µM / Ternary Complex Activity: Maximum effect (Emax, fold over control) / Cmax: cell line not stated; for Effect on firefly/renilla luciferase ratio: KLN-tTA/pBISA-DL(ATF-4) cells; for Cmax: read-out: Ternary Complex Activity: Maximum effective dose Cmax; for Activity 2.5 uM: compound at 2.5 uM; for Activity 2.5 uM / Activity 10 uM: confirmed hits (Table 5); for Activity 10 uM: compound at 10 uM. The text has this:
For assay development, a bi-directional plasmid was designed in which a common promoter/enhancer complex drives the transcription of firefly luciferase (F-luc) ORF fused to the 5′ untranslated region (UTR) of ATF-4, and of the renilla luciferase (R-luc) ORF fused to a 90-nucleotide 5′ UTR derived from the plasmid (FIG. 6A). Because the tetracycline-regulated transactivator ((tTA), required for driving transcription from this vector) is not normally expressed in the mammalian cells, stable KLN cancer cells were constructed that expressed tTA (KLN-tTA).
The KLN-tTA colonies that drove expression of reporter genes from pBISA-DL plasmid were selected by transient transfection and dual luciferase assay. One of these KLN-tTA cell lines was transfected with the pBISA-DL^(ATF-4) expression vector, stable colonies were selected by dual luciferase assay and expanded. To determine if reduced availability of the eIF2.GTP.Met-tRNAi ternary complex increased the translation of firefly luciferase and decreased translation of renilla luciferase, selected KLN-tTA/pBISA-DL^(ATF-4) colonies were treated with thapsigargin (TG) or tunicamycin (TU), two agents known to cause phosphorylation of eIF2α.
This assay was then adapted for high throughput screening in 96 and 384 well plates. This was done by evaluating the cell density, length of exposure to compounds, DMSO tolerance and optimum firefly and renilla substrate. We then challenged these cells with thapsigargin or DMSO. […] Cell-based assays usually have higher variation than homogeneous in vitro assays due to position effect in the plate, and other variables associated with handling of cells and the plates.
Screening was conducted in 384 well white opaque plates (Nalge Nunc), 100 μl volume RPMI+10% fetal bovine serum. Cells were plated at the sub-confluent density of 10,000 cells/well, and allowed to attach for a period of 16-18 hours at 37° C., 5% CO2. Compounds were added as 1 μl of a 1 mM DMSO stock solution for a final screening concentration of […] using low-volume tips for transfer (Molecular Bioproducts). Cells were then incubated in the presence of compound for an additional sixteen hours, again at 37° C., 5% CO2. Following incubation 70 μl of the culture medium was removed from each well to allow for reagent addition and plates were allowed to equilibrate to room temperature for thirty minutes. Firefly luciferase reporter activity was then read by the addition of thirty microliters of Dual Glo Luciferase reagent (Promega), followed by one hour incubation at room temperature to allow for adequate signal buildup. Luminescence counting was conducted on a Microbeta Trilux using a 1 second read time. Renilla luciferase reporter activity was measured following addition of 30 μl Stop and Glo Luciferase reagent (Promega) and incubation identical to the one carried out for the firefly luciferase one.
Compound scores were interpreted as firefly luciferase activity divided by renilla luciferase activity, normalized to the plate's DMSO control. […] All data analysis was conducted using the BioAssay HTS software package (CambridgeSoft).
102,709 compounds in the NCI Open Chemical Repository were then screened using this HTS assay. […] Initial hits were confirmed by repeating the same dual luciferase assay in 96 well plates. Briefly, 20,000 cells/well were plated in triplicate for each concentration (10, 5 and 2.5 μM) of the compounds.

Series [2] relates to CRL-2351 human breast cancer cells. As to the kind of experiment: Cell proliferation SRB assay, CRL-2351. It counts as cell-based. Particulars: CRL-2351 human breast cancer cells; read-out: Growth Inhibition IC50 (μm). As to the method:
Reduced availability of the ternary complex causes inhibition of translation initiation and thereby of cell proliferation. […] The effects of N,N′-diarylureas on the proliferation KLN mouse squamous cell carcinoma, CRL-2351 human breast, CRL-2813 human melanoma, A549 human lung and PC-3 human prostate cancer cell lines were tested.
Cell Growth Assay: Cell Growth was Measured by the SRB Assay.

Regarding `FC(F)(F)c1cc(NC(=S)Nc2cc(C(F)(F)F)cc(C(F)(F)F)c2)cc(C(F)(F)F)c1` [Compound 1804], in series [1], the fold induction at 3 µM came to 6 and the fold induction at 10 µM is 25. For the same molecule, the 50% inhibitory concentration (IC50) in series [2] was 0.1 µM.

For `CO[C@@]12[C@H](COC(N)=O)C3=C(C(=O)C(C)=C(N)C3=O)N1C[C@@H]1N[C@@H]12` [mitomycin, reference compound], the “Effect on firefly/renilla luciferase ratio” value in series [1] is reported as “no effect”.

`CC(C)(C)c1ccccc1NC(=S)Nc1cc(C(F)(F)F)cc(C(F)(F)F)c1` [Compound 1821]: in series [1], the fold induction at 3 µM worked out at 1 and the fold induction at 10 µM was determined as 1. For the same molecule, the half-maximal inhibitory concentration (IC50) in series [2] was determined as 4 µM.

As to `FC(F)(F)c1cc(NC(=S)Nc2ccc(Cl)cc2)cc(C(F)(F)F)c1` [Compound 1800], in series [1], the fold induction at 3 µM was determined as 3 and the fold induction at 10 µM was 4. Further, in series [2], the IC50 is 0.5 µM.

Take `S=C(Nc1ccc(Cl)cc1)Nc1ccc(Cl)c(Cl)c1` [Compound 1805]: in series [1], the fold induction at 3 µM stood at 1.4 and the fold induction at 10 µM was 8. Moreover, the IC50 in series [2] is 1.6 µM.

For `COc1ccc(NC(=S)Nc2cc(C(F)(F)F)cc(C(F)(F)F)c2)cc1` [Compound 1816], in series [1], the fold induction at 3 µM was found to be 1 and the fold induction at 10 µM came to 2.5. The IC50 in series [2] was determined as 1.5 µM.

As for `CNC(=O)c1cc(Oc2ccc(NC(=S)Nc3ccc(Cl)c(C(F)(F)F)c3)cc2)ccn1` [Compound 1814], in series [1], the fold induction at 3 µM was 1.5 and the fold induction at 10 µM was found to be 2. Moreover, the IC50 in series [2] stood at 2 µM.

`COc1cc(N(C)C(=O)Nc2cc(C(F)(F)F)cc(C(F)(F)F)c2)ccc1C` [BLS14]: the “Ternary Complex Activity: Maximum effect (Emax, fold over control)” value in series [1] is on record as “Inactive”.

For `COc1cc([C@@H]2c3cc4c(cc3[C@@H](O[C@@H]3O[C@@H]5CO[C@@H](C)O[C@H]5[C@H](O)[C@H]3O)[C@H]3COC(=O)[C@H]23)OCO4)cc(OC)c1O` [etoposite, reference compound], the “Effect on firefly/renilla luciferase ratio” value in series [1] is given as “no effect”.

Take `FC(F)(F)c1cc(NC(=S)Nc2ccc(Cl)c(Cl)c2)cc(C(F)(F)F)c1` [Compound 1798]: in series [1], the fold induction at 3 µM worked out at 3 and the fold induction at 10 µM worked out at 5. For the same molecule, in series [2], the concentration for half-maximal inhibition (IC50) was 0.4 µM.

As to `FC(F)(F)c1cc(NC(=S)Nc2ccc(Cl)c(Cl)c2)ccc1Cl` [Compound 1799], in series [1], the fold induction at 3 µM was determined as 4 and the fold induction at 10 µM is 4. Moreover, the IC50 in series [2] turned out to be 0.7 µM.

As for `Cc1ccc(N(C)C(=O)Nc2cc(C(F)(F)F)cc(C(F)(F)F)c2)cc1O` [BLS13], in series [1], the “Ternary Complex Activity: Maximum effect (Emax, fold over control)” value was 8.5 fold over control and the Cmax was determined as 80 µM.

As for `CC(C)(C)C[CH2][Hg][Cl]` [Compound 146249], in series [1], the “Activity 2.5 uM” value is 2.57 and the “Activity 10 uM” value was 3.25.

With `FC(F)(F)c1ccc(NC(=S)Nc2ccc(Cl)c(Cl)c2)cc1` [Compound 1797], in series [1], the fold induction at 3 µM turned out to be 1 and the fold induction at 10 µM was 1. The half-inhibitory concentration (IC50) in series [2] came to 1.2 µM.

As for `CC(C)c1ccccc1NC(=S)Nc1cc(C(F)(F)F)cc(C(F)(F)F)c1` [Compound 1820], in series [1], the fold induction at 3 µM was 1.5 and the fold induction at 10 µM was found to be 11. Besides, the IC50 in series [2] was 1.5 µM.

For the molecule `FC(F)(F)c1cc(NC(=S)Nc2ccccc2)cc(C(F)(F)F)c1` [Compound 1819], in series [1], the fold induction at 3 µM amounted to 1 and the fold induction at 10 µM stood at 6. In series [2], the 50% inhibitory concentration (IC50) stood at 1.5 µM.

Consider `Cc1ccc(NC(=S)Nc2ccc(Cl)c(C(F)(F)F)c2)cc1O` [Compound 1802], for which, in series [1], the fold induction at 3 µM worked out at 1.5 and the fold induction at 10 µM came out at 7. In series [2], the concentration for half-maximal inhibition (IC50) stood at 3.5 µM.

For `S=C(Nc1ccc(Cl)c(Cl)c1)Nc1ccc(Cl)c(Cl)c1` [Compound 1806], in series [1], the fold induction at 3 µM is 2.5 and the fold induction at 10 µM is 3.5. The IC50 in series [2] was 0.9 µM.

`FC(F)(F)c1cc(Nc2nncn2-c2cc(C(F)(F)F)cc(C(F)(F)F)c2)cc(C(F)(F)F)c1` [Compound 1836]: in series [1], the fold induction at 3 µM was determined as 1 and the fold induction at 10 µM was determined as 1. Besides, the half-inhibitory concentration (IC50) in series [2] worked out at 2 µM.

`Cc1ccc(NC(=S)Nc2cc(C(F)(F)F)cc(C(F)(F)F)c2)cc1O` [Compound 1803]: in series [1], the fold induction at 3 µM was found to be 1 and the fold induction at 10 µM amounted to 12. Moreover, the IC50 in series [2] is 1.7 µM.

On to `CN(C(=O)Nc1cc(C(F)(F)F)cc(C(F)(F)F)c1)c1cc(C(F)(F)F)cc(C(F)(F)F)c1` [BLS17], for which, in series [1], the “Ternary Complex Activity: Maximum effect (Emax, fold over control)” value came to 13 fold over control and the Cmax stood at 10 µM.

In the case of `C/C=C(/C)C(=O)O[C@H]1C(C)=C2[C@H]([C@@H]1OC(=O)CCCCCCC)[C@@](C)(OC(C)=O)C[C@H](OC(=O)CCC)[C@@]1(O)[C@H]2OC(=O)[C@@]1(C)O` [thapsigargin, reference compound], the “Effect on firefly/renilla luciferase ratio” value in series [1] is given as “increase in the ratio”.

`N#Cc1ncc(Cl)cc1[N+](=O)[O-]` [Compound 141226]: in series [1], the “Activity 2.5 uM” value is reported as 1.02 and the “Activity 10 uM” value worked out at 3.8.

Regarding `FC(F)(F)c1cc(NC(=S)Nc2ccc(Cl)cc2)ccc1Cl` [Compound 1801], in series [1], the fold induction at 3 µM was 3 and the fold induction at 10 µM was 3. Further, in series [2], the concentration for half-maximal inhibition (IC50) came out at 0.8 µM.

Consider `COc1ccc(NC(=S)Nc2ccccc2)cc1` [Compound 1815], for which, in series [1], the fold induction at 3 µM is 1 and the fold induction at 10 µM came out at 1. The IC50 in series [2] is greater than 20 µM.

For the molecule tunicamycin [reference compound], the “Effect on firefly/renilla luciferase ratio” value in series [1] was “increase in the ratio”.

As to `Clc1ccc(Nc2nncn2-c2ccc(Cl)c(Cl)c2)cc1Cl` [Compound 1842], in series [1], the fold induction at 3 µM turned out to be 1 and the fold induction at 10 µM was 1.

In the case of `C[C@H](N)C(=O)NCC(=O)N[C@H]1CSSC[C@@H](C(=O)O)NC(=O)[C@H](CO)NC(=O)[C@H]([C@@H](C)O)NC(=O)[C@H](Cc2ccccc2)NC(=O)[C@H]([C@@H](C)O)NC(=O)[C@H](CCCCN)NC(=O)[C@H](Cc2c[nH]c3ccccc23)NC(=O)[C@H](Cc2ccccc2)NC(=O)[C@H](Cc2ccccc2)NC(=O)[C@H](CC(N)=O)NC(=O)[C@H](CCCCN)NC1=O` [Somatostatin], the “Relative F-luc/R-luc Ratio (+/− SEM)” value in series [1] (agent at 20 μM) is 0.9 + 0.2.

On to `FC(F)(F)c1cc(NC(=S)Nc2ccc(Cl)c(C(F)(F)F)c2)ccc1Cl` [Compound 1778], for which, in series [1], the fold induction at 3 µM is 5 and the fold induction at 10 µM stood at 8. Moreover, the IC50 in series [2] is 0.4 µM.
